# Like-named read-outs stand apart in the source and are kept apart here.
# How the values were obtained:
# SK-MEL-2 [1] = assay: NCI-60 five-dose assay; assay type: cell-based, human; conditions: for GI50 / LC50: Homo sapiens; for GI50: read-out: GI50 Conc. per Cell Line
# MALME-3M = assay: NCI-60 one-dose assay; assay type: cell-based; conditions: Homo sapiens, MALME-3M (Melanoma), read-out: Cell Inhibition Percent
# NCI-H23 = assay: NCI-60 one-dose assay; assay type: cell-based; conditions: Homo sapiens, NCI-H23 (Non-Small Cell Lung Cancer), read-out: Cell Inhibition Percent
# MDA-MB 231 = assay: NCI-60 one-dose assay; assay type: cell-based; conditions: Homo sapiens, MDA-MB 231 (Breast Cancer), read-out: Cell Inhibition Percent
# MCF7 = assay: NCI-60 one-dose assay; assay type: cell-based; conditions: Homo sapiens, MCF7 (Breast Cancer), read-out: Cell Inhibition Percent
# LOX IMVI = assay: NCI-60 one-dose assay; assay type: cell-based; conditions: Homo sapiens, LOX IMVI (Melanoma), read-out: Cell Inhibition Percent
# SK-MEL-2 [2] = assay: NCI-60 one-dose assay; assay type: cell-based; conditions: Homo sapiens, SK-MEL-2 (Melanoma), read-out: Cell Inhibition Percent
# NCI-H226 = assay: NCI-60 one-dose assay; assay type: cell-based; conditions: Homo sapiens, NCI-H226 (Non-Small Cell Lung Cancer), read-out: Cell Inhibition Percent
# A498 = assay: NCI-60 one-dose assay; assay type: cell-based; conditions: Homo sapiens, A498 (Renal Cancer), read-out: Cell Inhibition Percent
# MOLT-4 = assay: NCI-60 one-dose assay; assay type: cell-based; conditions: Homo sapiens, MOLT-4 (Leukemia), read-out: Cell Inhibition Percent
# ACHN = assay: NCI-60 one-dose assay; assay type: cell-based; conditions: Homo sapiens, ACHN (Renal Cancer), read-out: Cell Inhibition Percent
# NCI-H460 = assay: NCI-60 one-dose assay; assay type: cell-based; conditions: Homo sapiens, NCI-H460 (Non-Small Cell Lung Cancer), read-out: Cell Inhibition Percent
# M14 = assay: NCI-60 one-dose assay; assay type: cell-based; conditions: Homo sapiens, M14 (Melanoma), read-out: Cell Inhibition Percent
# SW-620 = assay: NCI-60 one-dose assay; assay type: cell-based; conditions: Homo sapiens, SW-620 (Colon Cancer), read-out: Cell Inhibition Percent
# EKVX = assay: NCI-60 one-dose assay; assay type: cell-based; conditions: Homo sapiens, EKVX (Non-Small Cell Lung Cancer), read-out: Cell Inhibition Percent
# SNB-19 = assay: NCI-60 one-dose assay; assay type: cell-based; conditions: Homo sapiens, SNB-19 (CNS cancer), read-out: Cell Inhibition Percent
# SN12C = assay: NCI-60 one-dose assay; assay type: cell-based; conditions: Homo sapiens, SN12C (Renal Cancer), read-out: Cell Inhibition Percent
# NCI/ADR-RES = assay: NCI-60 one-dose assay; assay type: cell-based; conditions: Homo sapiens, NCI/ADR-RES (ovarian cancer), read-out: Cell Inhibition Percent
# HOP-62 = assay: NCI-60 one-dose assay; assay type: cell-based; conditions: Homo sapiens, HOP-62 (Non-Small Cell Lung Cancer), read-out: Cell Inhibition Percent
# A549/ATCC = assay: NCI-60 one-dose assay; assay type: cell-based; conditions: Homo sapiens, A549/ATCC (Non-Small Cell Lung Cancer), read-out: Cell Inhibition Percent
# HT29 = assay: NCI-60 one-dose assay; assay type: cell-based; conditions: Homo sapiens, HT-29, HT29 (Colon Cancer), read-out: Cell Inhibition Percent
# NCI-H522 = assay: NCI-60 one-dose assay; assay type: cell-based; conditions: Homo sapiens, NCI-H522 (Non-Small Cell Lung Cancer), read-out: Cell Inhibition Percent
# SF-268 = assay: NCI-60 one-dose assay; assay type: cell-based; conditions: Homo sapiens, SF-268 (CNS cancer), read-out: Cell Inhibition Percent
# BT-549 = assay: NCI-60 one-dose assay; assay type: cell-based; conditions: Homo sapiens, BT-549 (Breast Cancer), read-out: Cell Inhibition Percent
# TK-10 = assay: NCI-60 one-dose assay; assay type: cell-based; conditions: Homo sapiens, TK-10 (Renal Cancer), read-out: Cell Inhibition Percent
# DU-145 = assay: NCI-60 one-dose assay; assay type: cell-based; conditions: Homo sapiens, DU-145 (Prostate Cancer), read-out: Cell Inhibition Percent
# T-47D = assay: NCI-60 one-dose assay; assay type: cell-based; conditions: Homo sapiens, T47D, T-47D (Breast Cancer), read-out: Cell Inhibition Percent
# SK-MEL-5 = assay: NCI-60 one-dose assay; assay type: cell-based; conditions: Homo sapiens, SK-MEL-5 (Melanoma), read-out: Cell Inhibition Percent
# HS 578T = assay: NCI-60 one-dose assay; assay type: cell-based; conditions: Homo sapiens, HS 578T (Breast Cancer), read-out: Cell Inhibition Percent
# HL-60(TB) = assay: NCI-60 one-dose assay; assay type: cell-based; conditions: Homo sapiens, HL-60(TB) (Leukemia), read-out: Cell Inhibition Percent
SMILES,inhibition at 10 µM (MALME-3M),inhibition at 10 µM (NCI-H23),inhibition at 10 µM (MDA-MB 231),inhibition at 10 µM (MCF7),inhibition at 10 µM (LOX IMVI),inhibition at 10 µM (SK-MEL-2 [2]),inhibition at 10 µM (NCI-H226),inhibition at 10 µM (A498),inhibition at 10 µM (MOLT-4),inhibition at 10 µM (ACHN),inhibition at 10 µM (NCI-H460),inhibition at 10 µM (M14),inhibition at 10 µM (SW-620),inhibition at 10 µM (EKVX),inhibition at 10 µM (SNB-19),inhibition at 10 µM (SN12C),inhibition at 10 µM (NCI/ADR-RES),inhibition at 10 µM (HOP-62),inhibition at 10 µM (A549/ATCC),inhibition at 10 µM (HT29),further results
"O=C(NN=Cc1ccc([N+](=O)[O-])cc1)c1ccc2[nH]c(-c3ccc(Cl)cc3)nc2c1 [Compound 4c, N′-(4-Nitrobenzylidene)-2-(4-chlorophenyl)-1H-benzimidazole-5-carbohydrazide]",92.2%,83.8%,23.1%,99.3%,101%,33.3%,45.2%,100%,95.8%,67.7%,94.6%,74.1%,87.3%,51%,48%,80.3%,22.7%,55.2%,65.5%,91.8%,"GI50 (SK-MEL-2 [1]; SK-MEL-2 (Melanoma), 48 h): 5.1 µM; TGI (SK-MEL-2 [1]; SK-MEL-2 (Melanoma), 48 h): 21.90 µM; inhibition at 10 µM (NCI-H522): 67%; inhibition at 10 µM (SF-268): 51.5%; inhibition at 10 µM (BT-549): 86%; inhibition at 10 µM (TK-10): 10.2%; inhibition at 10 µM (DU-145): 58%; inhibition at 10 µM (T-47D): 89.5%; inhibition at 10 µM (SK-MEL-5): 97.4%; inhibition at 10 µM (HS 578T): 63.2%; inhibition at 10 µM (HL-60(TB)): 93.4%"
"O=C(NN=Cc1ccc(Cl)cc1)c1ccc2[nH]c(-c3ccc(Cl)cc3)nc2c1 [Compound 4e, N′-(4-Chlorobenzylidene)-2-(4-chlorophenyl)-1H-benzimidazole-5-carbohydrazide]",159%,100%,90.5%,120%,156%,61.1%,0.67%,43.9%,95.5%,120%,134%,80.3%,128%,91.8%,95.7%,137%,58.8%,92%,127%,98.3%,"LC50 (SK-MEL-2 [1]; SK-MEL-2 (Melanoma), 48 h): 11.4 µM; GI50 (SK-MEL-2 [1]; SK-MEL-2 (Melanoma), 48 h): 2.09 µM; TGI (SK-MEL-2 [1]; SK-MEL-2 (Melanoma), 48 h): 4.64 µM; inhibition at 10 µM (NCI-H522): 36.8%; inhibition at 10 µM (SF-268): 62%; inhibition at 10 µM (BT-549): 0%; inhibition at 10 µM (TK-10): 104%; inhibition at 10 µM (DU-145): 69.5%; inhibition at 10 µM (T-47D): 113%; inhibition at 10 µM (SK-MEL-5): 63.8%; inhibition at 10 µM (HS 578T): 67%; inhibition at 10 µM (HL-60(TB)): 94.2%"
"COc1ccc(C=NNC(=O)c2ccc3[nH]c(-c4ccc(Cl)cc4)nc3c2)cc1 [Compound 4g, N′-(4-Methoxybenzylidene)-2-(4-chlorophenyl)-1H-benzimidazole-5-carbohydrazide]",93.5%,58.5%,60.2%,83.3%,99.1%,35.9%,26.2%,33.4%,31.8%,78.1%,94.1%,73.8%,75.6%,70.6%,75.8%,93.8%,26.4%,69.7%,88%,78.1%,"LC50 (SK-MEL-2 [1]; SK-MEL-2, Melanoma): 69.7 µM; GI50 (SK-MEL-2 [1]; SK-MEL-2, Melanoma): 3.59 µM; TGI (SK-MEL-2 [1]; SK-MEL-2, Melanoma): 13.80 µM; inhibition at 10 µM (NCI-H522): 17.4%; inhibition at 10 µM (SF-268): 80.1%; inhibition at 10 µM (BT-549): 43.1%; inhibition at 10 µM (TK-10): 60.9%; inhibition at 10 µM (DU-145): 20.7%; inhibition at 10 µM (T-47D): 76.7%; inhibition at 10 µM (SK-MEL-5): 66.3%; inhibition at 10 µM (HS 578T): 67.7%; inhibition at 10 µM (HL-60(TB)): 3.67%"
CCNC(=S)NNC(=O)c1ccc2[nH]c(-c3ccc(Cl)cc3)nc2c1 [Compound 5],1.54%,5.79%,20.5%,22.1%,12.4%,0%,9.79%,57.7%,90%,6.31%,1.06%,1.67%,0%,18.2%,2.37%,10.1%,1.07%,0.87%,6.17%,2.33%,inhibition at 10 µM (NCI-H522): 5.4%; inhibition at 10 µM (SF-268): 1.33%; inhibition at 10 µM (BT-549): 0%; inhibition at 10 µM (TK-10): 0%; inhibition at 10 µM (DU-145): 0%; inhibition at 10 µM (T-47D): 18.4%; inhibition at 10 µM (SK-MEL-5): 9.57%; inhibition at 10 µM (HS 578T): 9.75%; inhibition at 10 µM (HL-60(TB)): 0%
"CCn1c(-c2ccc3[nH]c(-c4ccc(Cl)cc4)nc3c2)n[nH]c1=S [Compound 6, 4-ethyl-5-(2-(4-chlorophenyl)-1H-benzimidazol-5-yl)-2,4-dihydro-3H-1,2,4triazole-3-thione]",2.41%,4.53%,2.36%,14.6%,0%,0%,1.97%,56.9%,2.85%,0%,0%,0%,0%,0.44%,0%,0%,0%,1.71%,0%,2.07%,inhibition at 10 µM (NCI-H522): 1.85%; inhibition at 10 µM (SF-268): 1.04%; inhibition at 10 µM (BT-549): 7.91%; inhibition at 10 µM (TK-10): 0%; inhibition at 10 µM (DU-145): 0%; inhibition at 10 µM (T-47D): 0.3%; inhibition at 10 µM (SK-MEL-5): 2.04%; inhibition at 10 µM (HS 578T): 1.05%; inhibition at 10 µM (HL-60(TB)): 0%

# Reference: paper PMC10819888, “Benzimidazole-Based Derivatives as Apoptotic Antiproliferative Agents: Design, Synthesis, Docking, and Mechanistic Studies” (Molecules, 2024)
